From ChEMBL document CHEMBL1201862, “PubChem BioAssay data set” (2004)
Calls of active or inactive are those of the source.

Key:
[1] = HEp-2 cell cytotoxicity, dose response, cytotoxicity control for RSV inhibitor project, HTS (AID 2410); assay type: functional; settings: human respiratory syncytial virus
[2] = molecular target: T1, Sentrin-specific protease 6 (Homo sapiens, UniProt Q9GZR1); assay type: functional;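 note: Luminescence-based dose-response confirmatory assay of SENP6 inhibition, following up an ultra-high-throughput screen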
T1 sequence (Q9GZR1 whole entry): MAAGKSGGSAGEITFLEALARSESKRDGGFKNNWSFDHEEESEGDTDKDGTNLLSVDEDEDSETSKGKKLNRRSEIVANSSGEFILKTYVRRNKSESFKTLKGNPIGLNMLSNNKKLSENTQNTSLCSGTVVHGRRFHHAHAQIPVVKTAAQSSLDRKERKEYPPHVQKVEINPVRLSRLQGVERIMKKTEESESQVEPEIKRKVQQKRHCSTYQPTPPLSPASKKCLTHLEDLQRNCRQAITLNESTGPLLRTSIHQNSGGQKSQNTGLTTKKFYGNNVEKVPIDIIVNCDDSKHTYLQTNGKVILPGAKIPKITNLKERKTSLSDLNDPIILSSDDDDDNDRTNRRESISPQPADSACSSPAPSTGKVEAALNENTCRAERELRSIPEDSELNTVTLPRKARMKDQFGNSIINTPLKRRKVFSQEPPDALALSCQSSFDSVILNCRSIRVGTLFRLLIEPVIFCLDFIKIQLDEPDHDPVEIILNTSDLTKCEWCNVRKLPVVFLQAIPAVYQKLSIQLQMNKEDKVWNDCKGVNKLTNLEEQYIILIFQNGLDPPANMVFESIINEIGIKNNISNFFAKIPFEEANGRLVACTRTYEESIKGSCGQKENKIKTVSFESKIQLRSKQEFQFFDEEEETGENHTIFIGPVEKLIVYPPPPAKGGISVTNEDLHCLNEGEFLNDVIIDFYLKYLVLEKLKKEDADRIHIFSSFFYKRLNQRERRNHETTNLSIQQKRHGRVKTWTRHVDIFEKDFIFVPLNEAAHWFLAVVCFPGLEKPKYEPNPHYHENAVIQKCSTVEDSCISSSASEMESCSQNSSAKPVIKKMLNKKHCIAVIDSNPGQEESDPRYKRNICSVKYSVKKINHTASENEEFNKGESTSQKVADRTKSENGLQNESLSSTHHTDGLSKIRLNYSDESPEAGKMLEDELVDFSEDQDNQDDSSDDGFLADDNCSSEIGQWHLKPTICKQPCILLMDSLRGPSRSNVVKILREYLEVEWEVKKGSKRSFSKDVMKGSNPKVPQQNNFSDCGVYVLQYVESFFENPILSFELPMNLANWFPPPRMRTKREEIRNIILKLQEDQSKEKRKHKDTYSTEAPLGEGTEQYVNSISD

[3] = molecular target: T2, Sentrin-specific protease 8 (Homo sapiens, UniProt Q96LD8); assay type: functional;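 note: luminescence read-out of SENP8 inhibition, dose-response confirmation following an ultra-high-throughput screen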
T2 sequence (Q96LD8 whole entry): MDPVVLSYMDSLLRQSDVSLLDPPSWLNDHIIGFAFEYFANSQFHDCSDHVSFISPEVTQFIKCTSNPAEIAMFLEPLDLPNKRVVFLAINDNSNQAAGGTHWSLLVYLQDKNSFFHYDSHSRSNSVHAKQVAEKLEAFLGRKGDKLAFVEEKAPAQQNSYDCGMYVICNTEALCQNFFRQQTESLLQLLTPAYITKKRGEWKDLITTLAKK

Caspase-3 = molecular target: T3, Caspase-3 (Homo sapiens, UniProt P42574); assay type: functional;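 note: Dose-response selectivity test against caspase-3 for candidate inhibitors of sentrin-specific proteases (SENPs)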
T3 sequence (P42574 whole entry): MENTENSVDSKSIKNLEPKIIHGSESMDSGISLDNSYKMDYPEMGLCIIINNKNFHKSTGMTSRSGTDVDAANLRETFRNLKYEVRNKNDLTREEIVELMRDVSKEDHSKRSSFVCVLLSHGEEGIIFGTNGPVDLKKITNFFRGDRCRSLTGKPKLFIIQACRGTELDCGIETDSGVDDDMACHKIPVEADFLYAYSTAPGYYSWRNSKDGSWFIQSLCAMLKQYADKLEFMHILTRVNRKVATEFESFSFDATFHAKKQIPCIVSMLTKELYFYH

[4] = molecular target: T4, Sentrin-specific protease 7 (Homo sapiens, UniProt Q9BQF6); assay type: functional;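 note: Luminescence-based dose-response confirmation of ultra-high-throughput screening hits, measuring inhibition of SENP7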
T4 sequence (Q9BQF6 whole entry): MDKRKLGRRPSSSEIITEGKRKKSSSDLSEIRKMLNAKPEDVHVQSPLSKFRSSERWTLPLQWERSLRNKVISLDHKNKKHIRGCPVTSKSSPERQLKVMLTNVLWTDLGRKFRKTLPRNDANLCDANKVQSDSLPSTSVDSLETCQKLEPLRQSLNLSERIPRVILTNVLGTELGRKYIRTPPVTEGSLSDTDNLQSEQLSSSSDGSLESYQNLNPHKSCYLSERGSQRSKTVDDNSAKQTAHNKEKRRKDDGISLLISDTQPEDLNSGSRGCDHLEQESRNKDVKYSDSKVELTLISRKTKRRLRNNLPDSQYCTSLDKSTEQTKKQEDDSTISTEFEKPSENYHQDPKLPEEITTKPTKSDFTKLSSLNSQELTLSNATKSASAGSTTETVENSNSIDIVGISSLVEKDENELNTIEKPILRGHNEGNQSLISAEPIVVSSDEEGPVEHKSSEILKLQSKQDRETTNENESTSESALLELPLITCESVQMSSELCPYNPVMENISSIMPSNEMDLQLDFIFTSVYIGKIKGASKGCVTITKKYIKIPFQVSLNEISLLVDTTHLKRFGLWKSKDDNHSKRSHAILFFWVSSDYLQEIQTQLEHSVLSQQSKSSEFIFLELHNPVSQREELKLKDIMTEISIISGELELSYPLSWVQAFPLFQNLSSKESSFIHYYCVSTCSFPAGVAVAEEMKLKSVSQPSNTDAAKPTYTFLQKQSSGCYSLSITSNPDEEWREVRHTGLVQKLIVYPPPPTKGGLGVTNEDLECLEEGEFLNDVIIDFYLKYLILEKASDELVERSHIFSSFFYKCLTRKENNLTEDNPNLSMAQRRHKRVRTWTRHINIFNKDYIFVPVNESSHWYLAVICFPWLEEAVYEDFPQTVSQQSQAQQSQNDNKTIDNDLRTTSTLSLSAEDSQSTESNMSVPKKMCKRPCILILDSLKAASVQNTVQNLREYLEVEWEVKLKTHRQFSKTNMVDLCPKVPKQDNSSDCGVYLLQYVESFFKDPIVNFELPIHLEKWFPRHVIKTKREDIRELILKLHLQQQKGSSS

Large T antigen = Large T antigen (Simian virus 40, UniProt P03070); assay type: functional, Betapolyomavirus macacae;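 note: Confirmatory-stage PubChem screen for compounds that inhibit SV40 T antigen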
Large T antigen, sequence (P03070 whole entry): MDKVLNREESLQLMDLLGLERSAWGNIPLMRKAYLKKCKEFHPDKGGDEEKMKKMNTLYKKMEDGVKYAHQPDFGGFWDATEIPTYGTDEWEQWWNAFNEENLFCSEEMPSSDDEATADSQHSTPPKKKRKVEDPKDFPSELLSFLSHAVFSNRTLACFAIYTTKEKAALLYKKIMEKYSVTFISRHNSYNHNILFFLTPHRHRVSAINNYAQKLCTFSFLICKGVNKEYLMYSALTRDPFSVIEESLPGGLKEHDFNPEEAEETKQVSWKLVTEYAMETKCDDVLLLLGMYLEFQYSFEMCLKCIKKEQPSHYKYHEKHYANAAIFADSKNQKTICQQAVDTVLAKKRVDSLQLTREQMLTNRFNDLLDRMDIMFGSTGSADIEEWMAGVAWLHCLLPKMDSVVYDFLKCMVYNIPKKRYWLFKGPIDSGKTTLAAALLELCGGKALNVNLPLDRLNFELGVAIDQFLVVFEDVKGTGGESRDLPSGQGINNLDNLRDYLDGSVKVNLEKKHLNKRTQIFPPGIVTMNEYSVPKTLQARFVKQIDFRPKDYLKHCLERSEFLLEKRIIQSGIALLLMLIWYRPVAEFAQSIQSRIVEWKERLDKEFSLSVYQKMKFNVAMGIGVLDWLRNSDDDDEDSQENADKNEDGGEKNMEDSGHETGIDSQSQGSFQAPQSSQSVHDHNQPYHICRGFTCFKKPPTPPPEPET

[5] = A Cell Based Secondary Assay To Explore Cytotoxicity of Compounds that Sensitize Mycobacterium Tuberculosis to Beta-Lactam Antibiotics.; assay type: functional
[6] = molecular target: T5, Rac GTPase-activating protein 1 (Homo sapiens, UniProt Q9H0H5); assay: MgcRacGAP GTPase-activating activity inhibitors, confirmation, biochemical, ADP Hunter fluorescence, primary and confirmatory (AID 624330); assay type: functional
T5 sequence (Q9H0H5 whole entry): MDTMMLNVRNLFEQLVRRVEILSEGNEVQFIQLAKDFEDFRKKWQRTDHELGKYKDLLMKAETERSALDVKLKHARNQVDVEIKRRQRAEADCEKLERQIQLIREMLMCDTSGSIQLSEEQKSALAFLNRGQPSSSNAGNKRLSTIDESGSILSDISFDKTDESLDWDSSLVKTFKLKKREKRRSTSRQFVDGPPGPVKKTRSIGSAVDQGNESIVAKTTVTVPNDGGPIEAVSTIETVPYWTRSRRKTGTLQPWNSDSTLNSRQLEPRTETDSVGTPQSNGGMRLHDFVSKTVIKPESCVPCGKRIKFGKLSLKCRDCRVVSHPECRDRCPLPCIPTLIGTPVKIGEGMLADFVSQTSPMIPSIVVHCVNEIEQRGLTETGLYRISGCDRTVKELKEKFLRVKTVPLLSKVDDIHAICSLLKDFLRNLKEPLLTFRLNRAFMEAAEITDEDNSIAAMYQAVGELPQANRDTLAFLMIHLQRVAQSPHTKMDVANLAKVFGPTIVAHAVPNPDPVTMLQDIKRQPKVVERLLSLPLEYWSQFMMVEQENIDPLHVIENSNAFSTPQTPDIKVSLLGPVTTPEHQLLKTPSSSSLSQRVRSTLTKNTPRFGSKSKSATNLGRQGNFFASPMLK

SN12K1 = assay: cells; assay type: functional; settings: Homo sapiens

Compound: CCCOC(=O)c1cc(-c2ccc(C=O)o2)ccc1Cl
- CC50 [1]: 36.9 µM (active)

Compound: N=C1/C(=N\Nc2ccccc2F)C(=O)NN1c1ccccc1
- IC50 [2]: 2.09 µM (active)
- IC50 [3]: > 100 µM (inactive)
- IC50 (Caspase-3): 16.4 µM (active)
- IC50 [4]: 2.52 µM (active)

Compound: CCNc1nc(NCC)nc(N/N=C/c2ccc(O)c(OC)c2)n1
- IC50 (Large T antigen): 11 µM (active)

Compound: CCOC(=O)C1C(=O)C=C(c2ccc(C)cc2)CC1c1ccccc1 (centres undefined)
- CC50 [1]: 35.4 µM (active)

Compound: CSc1nc(C(=O)N2CCc3c([nH]c4ccccc34)C2c2ccccn2)cs1 (centres undefined)
- CC50 [1]: 30.1 µM (active)

Compound: COc1ccc(-c2nc(O)c3cnccn23)cc1
- IC50 (Large T antigen): 24.2 µM (active)

Compound: C=C(C)c1sc(-c2ccc(Cl)cc2)nc1C
- IC50 [2]: 21.4 µM (active)
- IC50 [3]: 69.1 µM (active)
- IC50 (Caspase-3): 13.4 µM (active)
- IC50 [4]: 6.67 µM (active)

Compound: Nc1nc2ccccc2n1/N=C/c1ccc(Br)cc1
- IC50 [2]: 5.96 µM (active)
- IC50 [3]: 5.66 µM (active)
- IC50 (Caspase-3): 16.1 µM (active)
- IC50 [4]: 4.21 µM (active)

Compound: CC(C)(c1cc(Br)c(O)c(Br)c1)c1cc(Br)c(O)c(Br)c1
- CC50 [1]: 24.9 µM (active)

Compound: CCOC(=O)C1=C(C)N(c2ccccc2)C(=O)/C1=C\c1ccc(O)c(OC)c1
- IC50 (Large T antigen): 47.1 µM (active)

Compound: NC(=NOC(=O)c1ccc(Cl)cc1Cl)c1ccc(Cl)cc1
- IC50 [2]: > 100 µM (inactive)
- IC50 [3]: > 100 µM (inactive)
- IC50 (Caspase-3): 35.6 µM (active)
- IC50 [4]: 9.34 µM (active)

Compound: Cc1ccc(O)c(-c2cc(-c3ccccc3F)[nH]n2)c1
- IC50 [2]: 21.9 µM (active)
- CC50 [5]: > 40 µM (active)
- IC50 [3]: 4.59 µM (active)
- IC50 (Caspase-3): 31.9 µM (active)
- IC50 [4]: 3.4 µM (active)

Compound: COc1ccc(/C=N\NC(=O)c2ccc(O)nn2)cc1O
- IC50 [6]: 26.5 µM (active)
- IC50 (Large T antigen): 14.3 µM (active)

Compound: Nc1ccn(C2C=C(CO)C(O)C2O)c(=O)c1 (centres undefined)
- GI50 (SN12K1): > 625 µM (inactive)

Compound: CCc1nnc(S)n1/N=C/c1ccc(N(C)c2ccccc2)cc1
- CC50 [1]: 28.1 µM (active)

Compound: COc1ccc(Nc2nc(-c3cccs3)nc3ccccc23)c(OC)c1
- CC50 [1]: 32.9 µM (active)

Compound: Cc1ccc(-n2nc3c(=O)n(CCCC(=O)NCc4cccc(F)c4)nc(C)c3c2C)cc1
- CC50 [1]: > 50 µM (active)
